Data taken from US8314112B2 (Novartis AG, priority 2008, dated 2012).
pIC50: −log10 of the molar value.

Biological target: T1, human ALK5 (kinase domain, ALK5 T204D) (Homo sapiens, UniProt P36897, T204D)
T1 construct: The kinase domain of human ALK5 (amino acids 200-503); made in house; host or cells: insect cells (baculovirus)
T1 sequence (P36897 200-503 T204D): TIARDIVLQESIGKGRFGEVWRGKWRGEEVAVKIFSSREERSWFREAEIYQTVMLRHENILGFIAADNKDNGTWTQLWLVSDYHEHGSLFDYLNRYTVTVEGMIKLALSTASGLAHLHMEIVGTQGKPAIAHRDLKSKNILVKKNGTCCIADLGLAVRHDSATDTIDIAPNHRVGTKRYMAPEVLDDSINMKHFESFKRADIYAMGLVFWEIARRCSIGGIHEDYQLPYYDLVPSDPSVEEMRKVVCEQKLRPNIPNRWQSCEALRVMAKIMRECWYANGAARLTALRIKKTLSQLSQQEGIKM
Assay: ALK5 kinase assay ([33P] phosphate incorporation into casein)
Format: biochemical
Details: casein substrate, 1 μM unlabelled ATP
How it was run: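 His-tagged human ALK5 T204D kinase domain (aa 200-503, constitutively active, baculovirus/insect-cell expressed), 50 ng/well, preincubated 10 min with compound and dephosphorylated casein (200 μg/well) in Tris pH 7.4/MgCl2/MnCl2. Reaction started with 1 μM ATP plus [33P]ATP, 50 min at room temperature, EDTA-stopped; casein-bound 33P counted by scintillation after filter capture.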

| pIC50 | Compound |
| --- | --- |
| 6.79 | Cc1cccc(-c2nc(-c3cncc(C4=CCCC4)c3)c3cc[nH]c3n2)n1 [Example 74, 4-(5-Cyclopent-1-enyl-pyridin-3-yl)-2-(6-methyl-pyridin-2-yl)-7H-pyrrolo[2,3-d]pyrimidine] |
| 7.31 | Cc1cccc(-c2nc(-c3cncc(-c4cncc(CO)c4)c3)c3cc[nH]c3n2)n1 [Example 78, {5′-[2-(6-Methyl-pyridin-2-yl)-7H-pyrrolo[2,3-d]pyrimidin-4-yl]-[3,3′]bipyridinyl-5-yl}-methanol] |
| 5.91 | Cc1cccc(-c2nc(-c3cncc(CO)c3)c3cc[nH]c3n2)n1 [Example 79, {5-[2-(6-Methyl-pyridin-2-yl)-7H-pyrrolo[2,3-d]pyrimidin-4-yl]-pyridin-3-yl}-methanol] |
| 6.62 | Cc1cccc(-c2nc(-c3cncc(O)c3)c3cc[nH]c3n2)n1 [Example 80, 5-[2-(6-Methyl-pyridin-2-yl)-7H-pyrrolo[2,3-d]pyrimidin-4-yl]-pyridin-3-ol] |
| 7.77 | Cc1cccc(-c2nc(-c3cncc(-c4ccc(C(C)N)cc4)c3)c3cc[nH]c3n2)n1 (centres unmarked) [Example 81, 1-(4-{5-[2-(6-Methyl-pyridin-2-yl)-7H-pyrrolo[2,3-d]pyrimidin-4-yl]-pyridin-3-yl}-phenyl)-ethylamine] |
| 6.25 | Cc1cccc(-c2nc(-c3cncc(-c4nnco4)c3)c3cc[nH]c3n2)n1 [Example 83, 2-(6-Methyl-pyridin-2-yl)-4-(5-[1,3,4]oxadiazol-2-yl-pyridin-3-yl)-7H-pyrrolo[2,3-d]pyrimidine] |
| 6.72 | CSc1cncc(-c2nc(-c3cccc(C)n3)nc3[nH]ccc23)c1 [Example 94, 2-(6-Methyl-pyridin-2-yl)-4-(5-methylsulfanyl-pyridin-3-yl)-7H-pyrrolo[2,3-d]pyrimidine] |
| 6.59 | Cc1cccc(-c2nc(-c3cncc(N)c3)c3cc[nH]c3n2)n1 [Example 95, 5-[2-(6-Methyl-pyridin-2-yl)-7H-pyrrolo[2,3-d]pyrimidin-4-yl]-pyridin-3-ylamine] |
| 6.12 | Cc1cncc(-c2nc(-c3cccc(C)n3)nc3[nH]ccc23)c1 [Example 96, 4-(5-Methyl-pyridin-3-yl)-2-(6-methyl-pyridin-2-yl)-7H-pyrrolo[2,3-d]pyrimidine] |
| 6.10 | Cc1cccc(-c2nc(-c3cncc(C#N)c3)c3cc[nH]c3n2)n1 [Example 98, 5-[2-(6-Methyl-pyridin-2-yl)-7H-pyrrolo[2,3-d]pyrimidin-4-yl]-nicotinonitrile] |
| 6.88 | CC(=O)N1CC=C(c2cncc(-c3nc(-c4cccc(C)n4)nc4[nH]ccc34)c2)CC1 [Example 103, 1-{5-[2-(6-Methyl-pyridin-2-yl)-7H-pyrrolo[2,3-d]pyrimidin-4-yl]-3′,6′-dihydro-2′H-[3,4′]bipyridinyl-1′-yl}-ethanone] |
| 5.99 | Cc1cccc(-c2nc(-c3cncc(-c4nnn[nH]4)c3)c3cc[nH]c3n2)n1 [Example 104, 2-(6-Methyl-pyridin-2-yl)-4-[5-(1H-tetrazol-5-yl)-pyridin-3-yl]-7H-pyrrolo[2,3-d]pyrimidine] |

Continued, molecule first:

| Compound | pIC50 |
| --- | --- |
| CNCc1ccc(-c2cncc(-c3cc(-c4cccc(C)n4)nc4[nH]ccc34)c2)cc1 [Example 73, Methyl-(4-{5-[6-(6-methyl-pyridin-2-yl)-1H-pyrrolo[2,3-b]pyridin-4-yl]-pyridin-3-yl}-benzyl)-amine] | 7.77 |
| Cc1cccc(-c2nc(-c3cncc(-c4cncc(CN(C)C)c4)c3)c3cc[nH]c3n2)n1 [Example 75] | 6.51 |
| CNCc1cncc(-c2cncc(-c3nc(-c4cccc(C)n4)nc4[nH]ccc34)c2)c1 [Example 76] | 6.93 |
| Cc1cccc(-c2nc(-c3cncc(-c4ccc(C(C)(C)N)cc4)c3)c3cc[nH]c3n2)n1 [Example 77, 1-Methyl-1-(4-{5-[2-(6-methyl-pyridin-2-yl)-7H-pyrrolo[2,3-d]pyrimidin-4-yl]-pyridin-3-yl}-phenyl)-ethylamine] | 8.05 |
| Cc1cccc(-c2cc(-c3cncc(-c4ccc(CO)cc4)c3)c3cc[nH]c3n2)n1 [Example 82, (4-{5-[6-(6-Methyl-pyridin-2-yl)-1H-pyrrolo[2,3-b]pyridin-4-yl]-pyridin-3-yl}-phenyl)-methanol] | 7.92 |
| Cc1cccc(-c2cc(-c3cncc(-c4ccc(CN)cc4)c3)c3cc[nH]c3n2)n1 [Example 84, 4-{5-[6-(6-Methyl-pyridin-2-yl)-1H-pyrrolo[2,3-b]pyridin-4-yl]-pyridin-3-yl}-benzylamine] | 7.44 |
| Cc1cccc(-c2nc(-c3cncc(-c4cccc(C(C)(C)N)c4)c3)c3cc[nH]c3n2)n1 [Example 85, 1-Methyl-1-(3-{5-[2-(6-methyl-pyridin-2-yl)-7H-pyrrolo[2,3-d]pyrimidin-4-yl]-pyridin-3-yl}-phenyl)-ethylamine] | 7.00 |
| Cc1cccc(-c2cc(-c3cncc(-c4cccc(CN)c4)c3)c3cc[nH]c3n2)n1 [Example 86, 3-{5-[6-(6-Methyl-pyridin-2-yl)-1H-pyrrolo[2,3-b]pyridin-4-yl]-pyridin-3-yl}-benzylamine] | 8.10 |
| Cc1cccc(-c2nc(-c3cncc(-c4ccc(C5CNCCN5)cc4)c3)c3cc[nH]c3n2)n1 (centres unmarked) [Example 87, 2-(6-Methyl-pyridin-2-yl)-4-[5-(4-piperazin-2-yl-phenyl)-pyridin-3-yl]-7H-pyrrolo[2,3-d]pyrimidine] | 8.00 |
| Cc1cccc(-c2cc(-c3cncc(-c4ccc(CN5CCOCC5)cc4)c3)c3cc[nH]c3n2)n1 [Example 88, 6-(6-Methyl-pyridin-2-yl)-4-[5-(4-morpholin-4-ylmethyl-phenyl)-pyridin-3-yl]-1H-pyrrolo[2,3-b]pyridine] | 7.70 |
| Cc1cccc(-c2cc(-c3cncc(C4=CCCC4)c3)c3cc[nH]c3n2)n1 [Example 89, 4-(5-Cyclopent-1-enyl-pyridin-3-yl)-6-(6-methyl-pyridin-2-yl)-1H-pyrrolo[2,3-b]pyridine] | 7.10 |
| Cc1cccc(-c2cc(-c3cncc(-c4cccc(CN5CCOCC5)c4)c3)c3cc[nH]c3n2)n1 [Example 90, 6-(6-Methyl-pyridin-2-yl)-4-[5-(3-morpholin-4-ylmethyl-phenyl)-pyridin-3-yl]-1H-pyrrolo[2,3-b]pyridine] | 7.18 |
| Cc1cccc(-c2cc(-c3cncc(-c4cncc(CN(C)C)c4)c3)c3cc[nH]c3n2)n1 [Example 91, Dimethyl-{5′-[6-(6-methyl-pyridin-2-yl)-1H-pyrrolo[2,3-b]pyridin-4-yl]-[3,3′]bipyridinyl-5-ylmethyl}-amine] | 6.96 |
| CNCc1cncc(-c2cncc(-c3cc(-c4cccc(C)n4)nc4[nH]ccc34)c2)c1 [Example 92, Methyl-{5′-[6-(6-methyl-pyridin-2-yl)-1H-pyrrolo[2,3-b]pyridin-4-yl]-[3,3′]bipyridinyl-5-ylmethyl}-amine] | 6.99 |
| Cc1cccc(-c2cc(-c3cncc(-c4cccc(CO)c4)c3)c3cc[nH]c3n2)n1 [Example 93, (3-{5-[6-(6-Methyl-pyridin-2-yl)-1H-pyrrolo[2,3-b]pyridin-4-yl]-pyridin-3-yl}-phenyl)-methanol] | 7.62 |
| Cc1cccc(-c2nc(-c3cncc(-c4ccc(CN5CC[C@@H](N(C)C)C5)cc4)c3)c3cc[nH]c3n2)n1 [Example 97, Dimethyl-[(R)-1-(4-{5-[2-(6-methyl-pyridin-2-yl)-7H-pyrrolo[2,3-d]pyrimidin-4-yl]-pyridin-3-yl}-benzyl)-pyrrolidin-3-yl]-amine] | 8.10 |
| Cc1cccc(-c2nc(-c3cncc(-c4cccc(C5CNCCN5)c4)c3)c3cc[nH]c3n2)n1 (centres unmarked) [Example 99, 2-(6-Methyl-pyridin-2-yl)-4-[5-(3-piperazin-2-yl-phenyl)-pyridin-3-yl]-7H-pyrrolo[2,3-d]pyrimidine] | 7.85 |
| Cc1cccc(-c2nc(-c3cncc(-c4ccc(CN5CC[C@H](N(C)C)C5)cc4)c3)c3cc[nH]c3n2)n1 [Example 100, Dimethyl-[(S)-1-(4-{5-[2-(6-methyl-pyridin-2-yl)-7H-pyrrolo[2,3-d]pyrimidin-4-yl]-pyridin-3-yl}-benzyl)-pyrrolidin-3-yl]-amine] | 8.10 |
| Cc1cccc(-c2nc(-c3cncc(C4=CCNCC4)c3)c3cc[nH]c3n2)n1 [Example 101, 5-[2-(6-Methyl-pyridin-2-yl)-7H-pyrrolo[2,3-d]pyrimidin-4-yl]-1′,2′,3′,6′-tetrahydro-[3,4′]bipyridinyl] | 6.36 |
| Cc1cccc(-c2nc(-c3cncc(-c4cccc(C5CCCN5)c4)c3)c3cc[nH]c3n2)n1 (centres unmarked) [Example 102, 2-(6-Methyl-pyridin-2-yl)-4-[5-(3-pyrrolidin-2-yl-phenyl)-pyridin-3-yl]-7H-pyrrolo[2,3-d]pyrimidine] | 7.51 |
| CSc1cncc(-c2cc(-c3cccc(C)n3)nc3[nH]ccc23)c1 [Example 105, 6-(6-Methyl-pyridin-2-yl)-4-(5-methylsulfanyl-pyridin-3-yl)-1H-pyrrolo[2,3-b]pyridine] | 6.94 |
| Cc1cccc(-c2cc(-c3cncc(N)c3)c3cc[nH]c3n2)n1 [Example 106, 5-[6-(6-Methyl-pyridin-2-yl)-1H-pyrrolo[2,3-b]pyridin-4-yl]-pyridin-3-ylamine] | 7.18 |
| Cc1cccc(-c2cc(-c3cncc(O)c3)c3cc[nH]c3n2)n1 [Example 107, 5-[6-(6-Methyl-pyridin-2-yl)-1H-pyrrolo[2,3-b]pyridin-4-yl]-pyridin-3-ol] | 7.37 |
